According to ChEMBL document CHEMBL4270538, “Targeting prohibitin with small molecules to promote melanogenesis and apoptosis in melanoma cells” (Eur J Med Chem, 2018):
Calls of active or inactive are those of the source. No cut-off for these calls is given here.

Tests used:
[1] = target: T1, Prohibitin 1 (Homo sapiens) (UniProt P35232); assay: Downregulation of PHB1 in human HBL cells at 0.1 to 10 uM after 24 to 48 hrs by Western blot analysis; type: cell-based
T1 sequence (whole entry): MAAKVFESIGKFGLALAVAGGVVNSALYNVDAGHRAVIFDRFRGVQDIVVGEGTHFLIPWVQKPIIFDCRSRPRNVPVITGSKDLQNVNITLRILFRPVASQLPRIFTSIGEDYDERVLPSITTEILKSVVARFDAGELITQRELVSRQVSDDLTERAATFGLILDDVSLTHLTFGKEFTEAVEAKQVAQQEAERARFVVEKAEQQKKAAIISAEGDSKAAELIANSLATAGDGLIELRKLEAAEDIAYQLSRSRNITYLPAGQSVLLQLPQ

[2] = target: Prohibitin-2 (Homo sapiens) (UniProt Q99623); assay: Induction of PHB2-mediated melanogenesis in human HBL cells assessed as pigmentation at 1 uM after 10 days relative to control; type: cell-based
Chain of Prohibitin-2 (Homo sapiens) (Q99623 whole entry): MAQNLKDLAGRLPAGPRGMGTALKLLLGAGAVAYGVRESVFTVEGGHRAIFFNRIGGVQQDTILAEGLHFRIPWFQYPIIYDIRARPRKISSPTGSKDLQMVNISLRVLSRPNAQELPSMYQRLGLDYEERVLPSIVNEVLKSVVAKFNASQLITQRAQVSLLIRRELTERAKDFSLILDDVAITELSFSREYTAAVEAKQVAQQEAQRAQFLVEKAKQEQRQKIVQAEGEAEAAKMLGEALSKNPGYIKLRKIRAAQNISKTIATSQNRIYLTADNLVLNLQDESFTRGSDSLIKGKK

[3] = target: Prohibitin-2 (Homo sapiens) (UniProt Q99623); assay: Induction of PHB2-mediated melanogenesis in human HBL cells assessed as pigmentation at 10 uM after 10 days relative to control; type: cell-based
[4] = target: Prohibitin-2 (Homo sapiens) (UniProt Q99623); assay: Induction of PHB2-mediated melanogenesis in human MM043 cells assessed as pigmentation at 1 to 10 uM after 10 days relative to control; type: cell-based
[5] = target: Prohibitin-2 (Homo sapiens) (UniProt Q99623); assay: Induction of PHB2-mediated melanogenesis in human MM162 cells assessed as pigmentation at 1 to 10 uM after 10 days relative to control; type: cell-based
[6] = target: Prohibitin-2 (Homo sapiens) (UniProt Q99623); assay: Binding affinity to PHB2 in human HBL cells assessed as upregulation of MITF protein expression at 0.1 to 10 uM after 24 to 48 hrs by Western blot analysis; type: cell-based
[7] = target: Prohibitin-2 (Homo sapiens) (UniProt Q99623); assay: Binding affinity to PHB2 in human HBL cells assessed as upregulation of tyrosinase protein expression at 0.1 to 10 uM after 24 to 48 hrs by Western blot analysis; type: cell-based
[8] = target: Prohibitin-2 (Homo sapiens) (UniProt Q99623); assay: Binding affinity to PHB2 in human HBL cells assessed as LC3-2 accumulation after 24 to 48 hrs by Western blot analysis; type: cell-based
[9] = target: Prohibitin-2 (Homo sapiens) (UniProt Q99623); assay: Induction of PHB2-mediated melanogenesis in human HBL cells assessed as pigmentation at 10 uM after 10 days in presence of autophagy inhibitor PIK-3; type: cell-based
[10] = target: Prohibitin-2 (Homo sapiens) (UniProt Q99623); assay: Induction of PHB2-mediated melanogenesis in human HBL cells assessed as pigmentation at 10 uM after 10 days in presence of autophagy activator HD1; type: cell-based
[11] = target: Prohibitin-2 (Homo sapiens) (UniProt Q99623); assay: Binding affinity to PHB2 in human HBL cells assessed as upregulation of MITF protein expression at 10 uM after 24 in presence of autophagy inhibitor PIK-3 by Western blot analysis; type: cell-based
[12] = target: Prohibitin-2 (Homo sapiens) (UniProt Q99623); assay: Binding affinity to PHB2 in human HBL cells assessed as upregulation of MITF protein expression at 10 uM after 24 in presence of autophagy activator HD1 by Western blot analysis; type: cell-based
[13] = target: Prohibitin-2 (Homo sapiens) (UniProt Q99623); assay: Binding affinity to PHB2 in human HBL cells assessed as LC3-2 accumulation at 10 uM after 24 in presence of autophagy inhibitor PIK-3 by Western blot analysis; type: cell-based
[14] = target: Prohibitin-2 (Homo sapiens) (UniProt Q99623); assay: Binding affinity to PHB2 in human HBL cells assessed as LC3-2 accumulation at 10 uM after 24 in presence of autophagy activator HD1 by Western blot analysis; type: cell-based
[15] = target: Prohibitin-2 (Homo sapiens) (UniProt Q99623); assay: Binding affinity to PHB2 in human HBL cells assessed as upregulation of ERK phosphorylation at 0.1 to 10 uM after 24 hrs by Western blot analysis; type: cell-based
[16] = target: Prohibitin-2 (Homo sapiens) (UniProt Q99623); assay: Binding affinity to PHB2 in human HBL cells assessed as feedback mechanism based inhibition of ERK phosphorylation at 0.1 to 10 uM after 48 hrs by Western blot analysis; type: cell-based
[17] = target: Prohibitin-2 (Homo sapiens) (UniProt Q99623); assay: Downregulation of PHB2 in human HBL cells at 0.1 to 10 uM after 24 to 48 hrs by Western blot analysis; type: cell-based
[18] = target: RAC-alpha serine/threonine-protein kinase (Homo sapiens) (UniProt P31749); assay: Inhibition of Akt phosphorylation in human HBL cells at 0.1 to 10 uM after 24 to 48 hrs by Western blot analysis; type: cell-based
Chain of RAC-alpha serine/threonine-protein kinase (Homo sapiens) (P31749 whole entry): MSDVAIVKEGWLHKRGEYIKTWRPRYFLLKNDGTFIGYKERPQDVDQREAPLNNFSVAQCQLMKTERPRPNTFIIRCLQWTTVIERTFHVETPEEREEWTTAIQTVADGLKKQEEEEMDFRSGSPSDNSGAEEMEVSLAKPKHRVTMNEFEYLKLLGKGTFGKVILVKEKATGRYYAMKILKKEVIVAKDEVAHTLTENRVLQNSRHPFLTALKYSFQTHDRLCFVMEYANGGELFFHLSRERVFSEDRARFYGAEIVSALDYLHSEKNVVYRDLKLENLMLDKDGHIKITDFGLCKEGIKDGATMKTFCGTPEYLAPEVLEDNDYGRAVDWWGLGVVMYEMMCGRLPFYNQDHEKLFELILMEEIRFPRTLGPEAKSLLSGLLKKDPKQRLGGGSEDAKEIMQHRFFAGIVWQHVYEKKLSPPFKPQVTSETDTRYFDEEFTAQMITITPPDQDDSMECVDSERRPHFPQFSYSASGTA

[19] = target: T1, Prohibitin 1 (Homo sapiens); assay: Downregulation of PHB1 in human MM043 cells at 0.1 to 10 uM after 24 hrs by Western blot analysis; type: cell-based
[20] = target: Prohibitin-2 (Homo sapiens) (UniProt Q99623); assay: Downregulation of PHB2 in human MM043 cells at 0.1 to 10 uM after 24 hrs by Western blot analysis; type: cell-based
[21] = target: RAC-alpha serine/threonine-protein kinase (Homo sapiens) (UniProt P31749); assay: Inhibition of Akt phosphorylation in human MM043 cells at 0.1 to 10 uM after 24 hrs by Western blot analysis; type: cell-based
[22] = target: T1, Prohibitin 1 (Homo sapiens); assay: Downregulation of PHB1 in human MM162 cells at 0.1 to 10 uM after 24 hrs by Western blot analysis; type: cell-based
[23] = target: Prohibitin-2 (Homo sapiens) (UniProt Q99623); assay: Downregulation of PHB2 in human MM162 cells at 0.1 to 10 uM after 24 hrs by Western blot analysis; type: cell-based
[24] = target: RAC-alpha serine/threonine-protein kinase (Homo sapiens) (UniProt P31749); assay: Inhibition of Akt phosphorylation in human MM162 cells at 0.1 to 10 uM after 24 hrs by Western blot analysis; type: cell-based
HL-60 = assay: Inhibition of cell proliferation in human HL60 cells after 72 hrs by MTS assay; type: functional, cell-based; conditions: HL-60, 72 h
KB = assay: Inhibition of cell proliferation in human KB cells after 72 hrs by MTS assay; type: functional, cell-based
HBL = assay: Induction of apoptosis in human HBL cells at 1 to 10 uM after 48 hrs by Annexin V-PE/7-AAD staining based flow cytometry; type: functional, cell-based
Homo sapiens [25] = species: Homo sapiens; assay: Induction of apoptosis in human MM043 cells at 1 to 10 uM after 48 hrs by Annexin V-PE/7-AAD staining based flow cytometry; type: functional, cell-based
Homo sapiens [26] = species: Homo sapiens; assay: Induction of apoptosis in human MM162 cells at 1 to 10 uM after 48 hrs by Annexin V-PE/7-AAD staining based flow cytometry; type: functional, cell-based
[27] = target: T1, Prohibitin 1 (Homo sapiens); assay: Downregulation of PHB1 in human HL60 cells at 0.1 to 10 uM after 24 hrs by Western blot analysis; type: cell-based
[28] = target: Prohibitin-2 (Homo sapiens) (UniProt Q99623); assay: Downregulation of PHB2 in human HL60 cells at 0.1 to 10 uM after 24 hrs by Western blot analysis; type: cell-based
[29] = target: Prohibitin-2 (Homo sapiens) (UniProt Q99623); assay: Binding affinity to PHB2 in human HL60 cells assessed as LC3-2 accumulation at 0.1 to 10 uM after 24 hrs by Western blot analysis; type: cell-based
[30] = target: Prohibitin-2 (Homo sapiens) (UniProt Q99623); assay: Binding affinity to PHB2 in human HL60 cells assessed as upregulation of ERK phosphorylation at 0.1 uM after 24 hrs by Western blot analysis; type: cell-based
[31] = target: RAC-alpha serine/threonine-protein kinase (Homo sapiens) (UniProt P31749); assay: Inhibition of Akt phosphorylation in human HL60 cells after 24 to 48 hrs by Western blot analysis; type: cell-based

Activity [1]: Active
fold change (FC) [2]: 1.15
fold change (FC) [3]: 2.01
Activity [4]: Active
Activity [5]: Active
Activity [6]: Active
Activity [7]: Active
Activity [8]: Dose-dependent effect
Activity [9]: inactive
Activity [10]: Active
Activity [11]: inactive
Activity [12]: Active
Activity [13]: inactive
Activity [14]: Active
Activity [15]: Active
inhibition [16]: Active
Activity [17]: Active
inhibition [18]: Active
Activity [19]: Active
Activity [20]: Active
inhibition [21]: Active
Activity [22]: Active
Activity [23]: Active
inhibition [24]: Active
IC50 (HL-60): 25 µM
IC50 (KB): 46 µM
Activity [27]: Active
Activity [28]: Active
Activity [29]: Active
Activity [30]: Active
inhibition [31]: Dose-dependent effect
Compound: Fc1cccc(CNc2nc(Oc3c(F)c(F)c(F)c(F)c3F)nc(N3CCC(N4CCCCC4)CC3)n2)c1
Activity (HBL): Active
Activity (Homo sapiens [25]): Active
Activity (Homo sapiens [26]): Active
